The results in this text go back to the OligoGym collection.

Where “and” joins values, the source holds several entries; their conditions need not be identical. Equal entries are not always repeated. After the bases stand the sugars from the 5' end (letter, count) and the backbone: PS all phosphorothioate, else s phosphorothioate and o phosphodiester by linkage. HELM strings list units from the 5' end as sugar, base in round brackets, then linkage (d deoxyribose, r ribose, m 2'-O-methyl, p phosphodiester). Methylation of C is not given here. [moe] = 2'-O-(2-methoxyethyl) (MOE); [cEt] = constrained ethyl (cEt); [sp] = phosphorothioate linkage; e = 2'-O-(2-methoxyethyl) (MOE); k = constrained ethyl (cEt); d = 2'-deoxy (DNA)

In one data set the target is IRF5. To be noted: ASO, KARPAS-229, 4 µM.
A further data set addresses HBV. To be noted: ASO.

For the substance “TCTGGCCCTTTTGGAA (sugars kddddddddddkekek, PS)”, the target mRNA inhibition with IRF5 came to 0%.
On the same count and under the same terms, the value for “CCAATTTTGCATTCCA (sugars kkddddddddkekekk, PS)” was 39%.
With “RNA1{[moe](T)[sp].[moe](G)[sp].[moe](A)[sp].[cEt](G)[sp].d(G)[sp].d(C)[sp].d(A)[sp].d(T)[sp].d(A)[sp].d(G)[sp].d(C)[sp].d(A)[sp].d(G)[sp].[cEt](C)[sp].[moe](A)[sp].[moe](G)[sp].[moe](G)}$$$$V2.0”, the target mRNA inhibition in the data set with HBV (HepG2, 0.009375 µM) came out at 6%; in the data set with HBV (HepG2, 0.01875 µM), 31%; with HBV (HepG2, 0.0375 µM) it was 42%; with HBV (HepG2, 0.075 µM) it was 58%; with HBV (HepG2, 0.15 µM), 66%; in the data set with HBV (HepG2, 0.3 µM) it was 82%.
With “RNA1{[moe](G)[sp].[moe](A)[sp].[moe](A)[sp].d(C)[sp].d(C)[sp].d(A)[sp].d(C)[sp].d(T)[sp].d(G)[sp].d(A)[sp].d(A)[sp].d(C)[sp].[moe](A)[sp].[moe](A)[sp].[moe](A)[sp].[moe](T)}$$$$V2.0”, in the data set with HBV (HepG2, 0.07 µM), the target mRNA inhibition was 46% and 42%.
As to “RNA1{[moe](C)[sp].[moe](G)[sp].[moe](A)[sp].[moe](A)[sp].[moe](C)[sp].d(C)[sp].d(A)[sp].d(C)[sp].d(T)[sp].d(G)[sp].d(A)[sp].d(A)[sp].d(C)[sp].d(A)[sp].[moe](A)[sp].[moe](A)[sp].[moe](T)}$$$$V2.0”, the target mRNA inhibition with HBV (HepG2, 0.07 µM) was 34% and 32%.
For the substance “RNA1{[moe](A)[sp].[moe](T)[sp].[moe](T)[sp].[moe](T)[sp].[moe](A)[sp].d(T)[sp].d(G)[sp].d(C)[sp].d(C)[sp].d(T)[sp].d(A)[sp].d(C)[sp].d(A)[sp].d(G)[sp].[moe](C)[sp].[moe](C)[sp].[moe](T)}$$$$V2.0”, the target mRNA inhibition with HBV (HepG2, 0.07 µM) is 70% and 48%.
Regarding “RNA1{[moe](G)[sp].[moe](A)[sp].[moe](A)[sp].d(C)[sp].d(C)[sp].d(A)[sp].d(C)[sp].d(T)[sp].d(G)[sp].d(A)[sp].d(A)[sp].d(C)[sp].[moe](A)[sp].[moe](A)[sp].[moe](A)[sp].[moe](T)[sp].[moe](G)}$$$$V2.0”, the target mRNA inhibition in the data set with HBV (HepG2, 0.07 µM) is 39% and 47%.
Still for that read-out and setting: the value for “RNA1{[moe](G)[sp].[moe](G)[sp].d(A)[sp].d(G)[sp].d(T)[sp].d(T)[sp].d(C)[sp].d(C)[sp].d(G)[sp].d(C)[sp].d(A)[sp].[moe](G)[sp].[moe](T)[sp].[moe](A)[sp].[moe](T)[sp].[moe](G)[sp].[moe](G)}$$$$V2.0” was 88% and 78%.
In the case of “RNA1{[moe](G)[sp].[cEt](C)[sp].[cEt](A)[sp].d(C)[sp].d(T)[sp].d(A)[sp].d(G)[sp].d(T)[sp].d(A)[sp].d(A)[sp].d(A)[sp].d(C)[sp].d(T)[sp].[cEt](G)[sp].[cEt](A)[sp].[moe](G)}$$$$V2.0”, the target mRNA inhibition was 8% with HBV (HepG2, 0.0092593 µM); 24% in the data set with HBV (HepG2, 0.0277778 µM); 73% and 81% in the data set with HBV (HepG2, 0.07 µM); 65% with HBV (HepG2, 0.0833333 µM); 87% with HBV (HepG2, 0.25 µM).
“RNA1{[moe](T)[sp].[moe](C)[sp].[moe](C)[sp].[moe](G)[sp].[moe](C)[sp].d(A)[sp].d(G)[sp].d(T)[sp].d(A)[sp].d(T)[sp].d(G)[sp].d(G)[sp].d(A)[sp].d(T)[sp].[moe](C)[sp].[moe](G)[sp].[moe](G)}$$$$V2.0”: in the data set with HBV (HepG2, 0.07 µM), the target mRNA inhibition is 77% and 68%.
Still for that read-out and setting: the same measure for “RNA1{[moe](G)[sp].[cEt](A)[sp].[cEt](T)[sp].d(G)[sp].d(A)[sp].d(G)[sp].d(G)[sp].d(C)[sp].d(A)[sp].d(T)[sp].d(A)[sp].d(G)[sp].d(C)[sp].[cEt](A)[sp].[cEt](G)[sp].[moe](C)}$$$$V2.0”: 60% and 59%; for “RNA1{[moe](T)[sp].[moe](T)[sp].[moe](A)[sp].d(T)[sp].d(G)[sp].d(C)[sp].d(C)[sp].d(T)[sp].d(A)[sp].d(C)[sp].d(A)[sp].d(G)[sp].[moe](C)[sp].[moe](C)[sp].[moe](T)[sp].[moe](C)}$$$$V2.0”: 51% and 41%; for “RNA1{[moe](A)[sp].[moe](G)[sp].[moe](T)[sp].[moe](T)[sp].d(C)[sp].d(C)[sp].d(G)[sp].d(C)[sp].d(A)[sp].d(G)[sp].d(T)[sp].d(A)[sp].d(T)[sp].[moe](G)[sp].[moe](G)[sp].[moe](A)}$$$$V2.0”: 60% and 39%.
On to “RNA1{[moe](G)[sp].[moe](A)[sp].d(G)[sp].d(G)[sp].d(T)[sp].d(G)[sp].d(A)[sp].d(A)[sp].d(G)[sp].d(C)[sp].d(G)[sp].[moe](A)[sp].[moe](A)[sp].[moe](G)[sp].[moe](T)[sp].[moe](G)}$$$$V2.0”, for which the target mRNA inhibition with HBV (HepG2, 0.07 µM) was 51% and 46%.
For “RNA1{[moe](T)[sp].[moe](T)[sp].d(C)[sp].d(C)[sp].d(G)[sp].d(C)[sp].d(A)[sp].d(G)[sp].d(T)[sp].d(A)[sp].d(T)[sp].[moe](G)[sp].[moe](G)[sp].[moe](A)[sp].[moe](T)[sp].[moe](C)}$$$$V2.0”, the target mRNA inhibition in the data set with HBV (HepG2, 0.07 µM) is 62% and 50%.
As to “RNA1{[moe](G)[sp].[moe](G)[sp].[moe](C)[sp].d(A)[sp].d(T)[sp].d(A)[sp].d(G)[sp].d(C)[sp].d(A)[sp].d(G)[sp].d(C)[sp].d(A)[sp].[moe](G)[sp].[moe](G)[sp].[moe](A)[sp].[moe](T)}$$$$V2.0”, in the data set with HBV (HepG2, 0.07 µM), the target mRNA inhibition is 54% and 57%.
Still for that read-out and setting: the value for “RNA1{[moe](T)[sp].[moe](T)[sp].[moe](C)[sp].[moe](C)[sp].[moe](G)[sp].[moe](C)[sp].d(A)[sp].d(G)[sp].d(T)[sp].d(A)[sp].d(T)[sp].d(G)[sp].d(G)[sp].d(A)[sp].d(T)[sp].[moe](C)[sp].[moe](G)}$$$$V2.0” was 45% and 53%.
In the case of “RNA1{[moe](G)[sp].[moe](G)[sp].[moe](T)[sp].d(G)[sp].d(A)[sp].d(A)[sp].d(G)[sp].d(C)[sp].d(G)[sp].d(A)[sp].d(A)[sp].d(G)[sp].[moe](T)[sp].[moe](G)[sp].[moe](C)[sp].[moe](A)[sp].[moe](C)}$$$$V2.0”, in the data set with HBV (HepG2, 0.07 µM), the target mRNA inhibition is 78% and 64%.
The same measure, in the same setting: the value for “RNA1{[moe](A)[sp].[moe](A)[sp].[moe](G)[sp].[moe](A)[sp].[moe](T)[sp].d(G)[sp].d(A)[sp].d(G)[sp].d(G)[sp].d(C)[sp].d(A)[sp].d(T)[sp].d(A)[sp].d(G)[sp].[moe](C)[sp].[moe](A)[sp].[moe](G)}$$$$V2.0” was 26% and 34%; that for “RNA1{[moe](A)[sp].[moe](C)[sp].[moe](C)[sp].d(A)[sp].d(C)[sp].d(T)[sp].d(G)[sp].d(A)[sp].d(A)[sp].d(C)[sp].d(A)[sp].d(A)[sp].d(A)[sp].[cEt](T)[sp].[cEt](G)[sp].[cEt](G)}$$$$V2.0” was 65% and 71%; that for “RNA1{[moe](G)[sp].[cEt](T)[sp].[cEt](T)[sp].d(C)[sp].d(C)[sp].d(G)[sp].d(C)[sp].d(A)[sp].d(G)[sp].d(T)[sp].d(A)[sp].d(T)[sp].d(G)[sp].[cEt](G)[sp].[cEt](A)[sp].[moe](T)}$$$$V2.0” was 69% and 72%.
In the case of “RNA1{[moe](T)[sp].[moe](G)[sp].d(A)[sp].d(G)[sp].d(G)[sp].d(C)[sp].d(A)[sp].d(T)[sp].d(A)[sp].d(G)[sp].d(C)[sp].[moe](A)[sp].[moe](G)[sp].[moe](C)[sp].[moe](A)[sp].[moe](G)}$$$$V2.0”, in the data set with HBV (HepG2, 0.07 µM), the target mRNA inhibition is 59% and 52%.
Same read-out and setting: the same measure for “RNA1{[moe](C)[sp].[moe](T)[sp].d(A)[sp].d(G)[sp].d(T)[sp].d(A)[sp].d(A)[sp].d(A)[sp].d(C)[sp].d(T)[sp].d(G)[sp].[moe](A)[sp].[moe](G)[sp].[moe](C)[sp].[moe](C)[sp].[moe](A)}$$$$V2.0”: 52% and 34%.
As for “RNA1{[moe](C)[sp].[cEt](T)[sp].d(A)[sp].d(G)[sp].d(T)[sp].d(A)[sp].d(A)[sp].d(A)[sp].d(C)[sp].d(T)[sp].d(G)[sp].d(A)[sp].[cEt](G)[sp].[moe](C)[sp].[cEt](C)[sp].[moe](A)}$$$$V2.0”, the target mRNA inhibition in the data set with HBV (HepG2, 0.07 µM) is 74% and 76%.
As to “RNA1{[moe](C)[sp].[moe](T)[sp].d(G)[sp].d(G)[sp].d(A)[sp].d(G)[sp].d(C)[sp].d(C)[sp].d(A)[sp].d(C)[sp].d(C)[sp].[moe](A)[sp].[moe](G)[sp].[moe](C)[sp].[moe](A)[sp].[moe](G)}$$$$V2.0”, the target mRNA inhibition in the data set with HBV (HepG2, 0.07 µM) is 57% and 53%.
Turning to “RNA1{[moe](A)[sp].[cEt](T)[sp].d(T)[sp].d(T)[sp].d(A)[sp].d(T)[sp].d(G)[sp].d(C)[sp].d(C)[sp].d(T)[sp].d(A)[sp].d(C)[sp].[cEt](A)[sp].[moe](G)[sp].[cEt](C)[sp].[moe](C)}$$$$V2.0”, in the data set with HBV (HepG2, 0.07 µM), the target mRNA inhibition is 44% and 52%.
On the same count and under the same terms, the value for “RNA1{[moe](A)[sp].[moe](A)[sp].[moe](T)[sp].[moe](T)[sp].d(T)[sp].d(A)[sp].d(T)[sp].d(G)[sp].d(C)[sp].d(C)[sp].d(T)[sp].d(A)[sp].d(C)[sp].[moe](A)[sp].[moe](G)[sp].[moe](C)}$$$$V2.0” was 38% and 34%; that for “RNA1{[moe](A)[sp].[moe](G)[sp].[moe](A)[sp].d(G)[sp].d(A)[sp].d(A)[sp].d(G)[sp].d(T)[sp].d(C)[sp].d(C)[sp].d(A)[sp].d(C)[sp].[moe](C)[sp].[moe](A)[sp].[moe](C)[sp].[moe](G)[sp].[moe](A)}$$$$V2.0” was 59% and 56%.
The same measure, in the same setting: the same measure for “RNA1{[moe](A)[sp].[moe](C)[sp].[moe](G)[sp].d(G)[sp].d(G)[sp].d(C)[sp].d(A)[sp].d(A)[sp].d(C)[sp].d(A)[sp].d(T)[sp].d(A)[sp].[moe](C)[sp].[moe](C)[sp].[moe](T)[sp].[moe](T)}$$$$V2.0”: 48% and 39%.
